Publication PMC3998017, “Single cell imaging of Bruton's Tyrosine Kinase using an irreversible inhibitor” (Scientific Reports, 2014)

Target: T1, Bruton's tyrosine kinase (BTK) (Homo sapiens, UniProt Q06187)
T1 construct: purified BTK (76 kDa)
Assay: IC50 on purified BTK enzyme; also covalent labelling of purified BTK and of BTK in Toledo cells by denaturing gel fluorescence, blocked by Ibrutinib
Assay type: biochemical

T1 sequence (Q06187 2-659): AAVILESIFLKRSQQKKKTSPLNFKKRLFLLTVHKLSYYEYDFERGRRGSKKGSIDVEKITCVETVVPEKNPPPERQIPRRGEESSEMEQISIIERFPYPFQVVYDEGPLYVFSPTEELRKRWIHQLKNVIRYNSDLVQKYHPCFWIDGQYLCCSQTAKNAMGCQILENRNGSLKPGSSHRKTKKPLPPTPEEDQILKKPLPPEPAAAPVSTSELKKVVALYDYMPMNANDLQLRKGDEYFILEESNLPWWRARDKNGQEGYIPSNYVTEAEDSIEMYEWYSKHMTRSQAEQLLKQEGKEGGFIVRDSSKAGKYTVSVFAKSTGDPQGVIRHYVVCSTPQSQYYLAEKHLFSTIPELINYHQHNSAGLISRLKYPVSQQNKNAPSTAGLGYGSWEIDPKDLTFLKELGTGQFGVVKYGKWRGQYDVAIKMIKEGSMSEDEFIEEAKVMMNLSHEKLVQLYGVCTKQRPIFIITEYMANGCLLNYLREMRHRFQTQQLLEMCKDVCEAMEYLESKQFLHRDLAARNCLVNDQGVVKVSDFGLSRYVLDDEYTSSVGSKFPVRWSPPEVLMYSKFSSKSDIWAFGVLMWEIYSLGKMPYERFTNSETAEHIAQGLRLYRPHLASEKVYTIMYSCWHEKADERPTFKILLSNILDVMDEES

IC50: ~200 nM
Compound: Cc1cc(C)n2c1C=C1C=CC(CCC(=O)NC/C=C/C(=O)N3CCC[C@@H](n4nc(-c5ccc(Oc6ccccc6)cc5)c5c(N)ncnc54)C3)=[N+]1[B-]2(F)F [compound 7, (R,E)-3-(3-((4-(3-(4-amino-3-(4-phenoxyphenyl)-1H-pyrazolo[3,4-d]pyrimidin-1-yl)piperidin-1-yl)-4-oxobut-2-en-1-yl)amino)-3-oxopropyl)-5,5-difluoro-7,9-dimethyl-5H-dipyrrolo[1,2-c:2′,1′-f][1,3,2]diazaborinin-4-ium-5-uide]
